Results: patent publication US7960397B2, “6,9-disubstituted purine derivatives and their use as cosmetics and cosmetic compositions” (Institute of Experimental Botany, Academy of Sciences of …, priority 2007, dated 2011)
Where two headings read alike, the source gives them in different places.

Assays:
[1] = system: Amaranthus caudatus cotyledon/hypocotyl explants; test: Amaranthus bioassay (betacyanin content); set-up: species or system Amaranthus caudatus var. atropurpurea; conditions: for concentration with highest activity: betacyanin content after 48 h incubation, tested 10^−8 M to 10^−4 M; for Activity (%) [10^−5 mol · l^−1 BAP = 100%]: betacyanin content at the concentration with highest activity, 10^−5 M BAP = 100%
Protocol: Testing of novel compounds for typical cytokinin activity in Amaranthus bioassay. A standard Amaranthus bioassay was performed with several modifications. The seeds of Amaranthus caudatus var. atropurpurea were surface-sterilized in 10% (w/v) N-chlorobenzenesulfonamide for 10 min and washed 5 times with deionized water. They were placed in 14 cm Petri dishes containing paper tissues saturated with deionized water. After 72 h of cultivation at 25° C. in darkness, the roots of the seedlings were cut off. The explants, consisting of two cotyledons and hypocotyls, were placed in 5 cm Petri dishes onto two layers of filter paper soaked with 1 ml of the incubation medium containing 10 mmol of NA2HPO4—KH2PO4, pH 6.8, 5 mmol of tyrosine and the compound to be tested. There were 20 explants per dish. The procedure was carried out under a green safe light in a darkroom. […] The concentration of betacyanin was determined from the absorbencies at 537 nm and 620 nm as follows: DA=A537 nm−A620 nm. […] Relative activity of the compound at this concentration was calculated. The activity obtained for 10^−5 M 6-benzylaminopurine (BAP) was defined as 100%.
(§1) The compounds to be tested were dissolved in dimethylsulfoxide (DMSO) and the solution brought up to 10^−3 M with distilled water.

[2] = system: cytokinin-dependent tobacco callus Nicotiana tabacum L. cv. Wisconsin 38; test: Cytokinin activity in tobacco callus bioassay; assay type: cell-based; conditions: for concentration with highest activity: growth of tobacco callus, four weeks of cultivation, tested 10^−8 M to 10^−4 M; for Activity (%) [10^−5 mol · l^−1 BAP = 100%]: increase of fresh callus weight at the concentration with highest activity, 10^−5 M BAP = 100%
Protocol: Estimation of cytokinin biological activity of novel compounds in callus bioassay. Cytokinin-dependent tobacco callus Nicotiana tabacum L. cv. […] Subcultivation was carried out every three weeks. Fourteen days before the bioassay, the callus tissue was transferred to the media without the compound tested. The biological activity was determined from the increase of the fresh callus weight after four weeks of cultivation. Five replicates were prepared for each concentration of the compound tested and the entire test was repeated twice. […] The relative activity of the compound at this concentration was calculated (Table 8). […] The compounds to be tested were dissolved in dimethylsulfoxide (DMSO) and the solution brought up to 10^−3 M with distilled water. This stock solution was further diluted with the respective media used for the biotest to a concentration ranging from 10^−8 M to 10^−4 M.

mouse fibroblasts NIH3T3 = test: In vitro cytotoxicity, Calcein AM assay; conditions: read-out: GI50 NIH-3T3
Protocol: (§2) Because only metabolically active cells cleave Calcein AM, these assays detect viable cells exclusively. The quantity of reduced Calcein AM corresponds to the number of vital cells in the culture.
(§3) The cells were maintained in Nunc/Corning 80 cm^2 plastic tissue culture flasks and cultured in cell culture medium (DMEM with 5 g/l glucose, 2 mM glutamine, 100 U/ml penicillin, 100 mg/ml streptomycin, 10% fetal calf serum and sodium bicarbonate).
(§4) The cell suspensions that were prepared and diluted according to the particular cell type and the expected target cell density (2,500-30,000 cells per well based on cell growth characteristics) were added by pipette (80 ml) into 96-well microtiter plates. Inoculates were allowed a pre-incubation period of 24 hours at 37° C. and 5% CO2 for stabilization. Four-fold dilutions of the intended test concentration were added at time zero in 20 ml aliquots to the microtiter plate wells. Usually, the compound tested was evaluated at six 4-fold dilutions. […] All drug concentrations were examined in duplicate. Incubations of cells with the tested compounds lasted for 72 hours at 37° C., in a 5% CO2 atmosphere and 100% humidity. At the end of the incubation period, the cells were assayed by using Calcein AM. Ten microliters of the stock solution were pipetted into each well and incubated for 1 hour. Fluorescence (FD) was measured with the Labsystem FIA Reader Fluoroscan Ascent (UK).

[3] = system: breast carcinoma cell line MCF-7; test: In vitro cytotoxicity, Calcein AM assay; conditions: read-out: GI50 MCF7
Protocol: as §2, §3, §4

human osteosarcoma HOS = test: In vitro cytotoxicity, Calcein AM assay; conditions: read-out: GI50 HOS
Protocol: as §2, §3, §4

[4] = system: human diploid fibroblasts (HCA cells, HCA20, HCA40, HCA60); test: Senescent cells (β-galactosidase staining) in culture of human fibroblasts; assay type: cell-based; conditions: for SENESCENT CELLS (%) HCA20: human fibroblasts passage 20 (HCA20); for SENESCENT CELLS (%) HCA40: human fibroblasts passage 40 (HCA40); for SENESCENT CELLS (%) HCA60: human fibroblasts passage 60 (HCA60)
Protocol: In this example, human diploid fibroblasts (HCA cells of various passage levels: passage 20—designated HCA20; passage 40—designated HCA40; passage 60—designated HCA60) were stained for β-galactosidase activity. The medium used for the cell cultivation was removed, the cells were washed twice in […], and fixed in 2-3 ml of fixing solution comprised of a 2% formaldehyde and 0.2% glutaraldehyde in PBS. The cells were incubated at room temperature for 5 minutes, and then washed twice with PBS. The cells were subsequently incubated at 37° C.

excised wheat leaf tips = test: Antisenescence test, retention of chlorophyll in excised wheat leaf tips; set-up: species or system Triticum aestivum cv. Hereward; conditions: for activity (%) [10^−4 mol · l^−1 BAP = 100%]: retention of chlorophyll in excised wheat leaf tips at the concentration with highest activity, 10 replicate determinations; for concentration with highest activity: retention of chlorophyll in excised wheat leaf tips, tested range 10^−8 M to 10^−4 M, 96 h in the dark at 25° C.
Protocol: Testing of antisenescence properties of novel cytokinin compounds on wheat leaf segments. Seeds of winter wheat, Triticum aestivum cv. Hereward, were washed under running water for 24 hours and then sown on vermiculite soaked with the Knop's solution. They were placed in the grow chamber at 25° C. with a 16 h-8 h light period at 50 mmol.m^−2.s^−1. After 7 days, the first leaf was fully developed and the second leaf had started to grow. A 35 mm long tip section of the first leaf, was removed from each of 5 seedlings and trimmed slightly to a combined weight of 100 mg. The basal ends of the five leaf tips were placed in the wells of a microtiter polystyrene plate containing […] of the solution of the tested compound each. The entire plate was inserted into a plastic box lined with paper tissues soaked with distilled water to prevent leaf sections from drying out. After 96 h incubation in the dark at 25° C., the leaves were removed and chlorophyll was extracted by heating at 80° C. for 10 min in 5 ml of 80% ethanol (v/v). The sample volume was then restored to 5 ml by the addition of 80% ethanol (v/v). The absorbance of the extract was recorded at 665 nm. In addition, chlorophyll extracts from fresh leaves and leaf tips incubated in deionized water were measured. […] Relative activity of the compound at this concentration was calculated (Table 7). The activity obtained for 10^−4 M 6-benzylaminopurine (BAP) was defined as 100%. The values shown are means of five replicates and the whole experiment was repeated twice.
as §1

[5] = system: promyelocytic HL-60 leukemia; test: In vitro cytotoxicity, Calcein AM assay; conditions: read-out: GI50 HL60
Protocol: as §2, §3, §4

[6] = system: Human T-lymphoblastic leukemia cell line CEM; test: In vitro cytotoxicity, Calcein AM assay; conditions: Homo sapiens, 72 h, read-out: GI50 CEM
Protocol: as §2, §3, §4

| SMILES | concentration with highest activity [1] | Activity (%) [10^−5 mol · l^−1 BAP = 100%] [1] [%] | concentration with highest activity [2] | Activity (%) [10^−5 mol · l^−1 BAP = 100%] [2] [%] | GI50 (mouse fibroblasts NIH3T3; NIH-3T3, 72 hours, Calcein AM) [µM] | GI50 ([3]; MCF7, 72 hours, Calcein AM) [µM] | GI50 (human osteosarcoma HOS; HOS, 72 hours, Calcein AM) [µM] | SENESCENT CELLS (%) HCA20 [4] [%] | SENESCENT CELLS (%) HCA40 [4] [%] | SENESCENT CELLS (%) HCA60 [4] [%] | activity (%) [10^−4 mol · l^−1 BAP = 100%] (excised wheat leaf tips) [%] | concentration with highest activity (excised wheat leaf tips) | GI50 ([5]; HL60, 72 hours, Calcein AM) [µM] | GI50 (mouse fibroblasts NIH3T3; Mus musculus, NIH3T3, 72 h) [µM] | GI50 ([3]; Homo sapiens, MCF7, 72 h) [µM] | GI50 (human osteosarcoma HOS; Homo sapiens, 72 h) [µM] | GI50 ([5]; Homo sapiens, HL-60, 72 h) [µM] | GI50 [6] [µM] |
| --- | --- | --- | --- | --- | --- | --- | --- | --- | --- | --- | --- | --- | --- | --- | --- | --- | --- | --- |
| COc1ccc(CNc2ncnc3c2ncn3C2CCCCO2)cc1O (stereo not drawn) | 10^−4 mol · l^−1 | 41 | 10^−6 mol · l^−1 | 55 | > 167 | > 167 | > 167 | 5 | 7 | 29 | 47 | 10^−4 mol · l^−1 | > 167 | – | – | – | – | – |
| CCOC(C)n1cnc2c(NC/C=C(\C)CO)ncnc21 (stereo not drawn) | 10^−4 mol · l^−1 | 92.5 | 10^−4 mol · l^−1 | 102.8 | > 167 | > 167 | > 167 | – | – | – | 92.5 | 10^−4 mol · l^−1 | > 167 | – | – | – | – | – |
| C/C(=C\CNc1ncnc2c1ncn2CCCCCl)CO | 10^−4 mol · l^−1 | 123.8 | 10^−4 mol · l^−1 | 103.5 | > 167 | > 167 | > 167 | – | – | – | 73.8 | 10^−4 mol · l^−1 | > 167 | – | – | – | – | – |
| C/C(=C\CNc1ncnc2c1ncn2C1CCCO1)CO (stereo not drawn) | 10^−4 mol · l^−1 | 117 | 10^−5 mol · l^−1 | 89 | > 167 | > 167 | > 167 | – | – | – | 45 | 10^−4 mol · l^−1 | > 167 | – | – | – | – | – |
| Cc1cc(Nc2ncnc3c2ncn3C2CCCCO2)ccc1O (stereo not drawn) [4-hydroxy-3-methylanilino / tetrahydropyran-2-yl] | 10^−4 mol · l^−1 | 15 | 10^−5 mol · l^−1 | 12 | > 167 | > 167 | > 167 | 3 | 4 | 19 | 7 | 10^−4 mol · l^−1 | > 167 | – | – | – | – | – |
| Cc1cc(Nc2ncnc3c2ncn3C2CCCCO2)ccc1O (stereo not drawn) [4-hydroxy-5-methylanilino / tetrahydropyran-2-yl] | 10^−4 mol · l^−1 | 17 | 10^−5 mol · l^−1 | 10 | > 167 | > 167 | > 167 | 4 | 4 | 18 | 10 | 10^−4 mol · l^−1 | > 167 | – | – | – | – | – |
| Oc1ccc(CNc2ncnc3c2ncn3CCCCCl)cc1 [4-hydroxybenzylamino / 4-chlorobutyl, 6-(4-hydroxybenzylamine)-9-(4-chlorobutyl)purine] | 10^−4 mol · l^−1 | 33.4 | – | – | > 167 | > 167 | > 167 | – | – | – | 33.4 | 10^−4 mol · l^−1 | > 167 | – | – | – | – | – |
| Oc1cccc(CNc2ncnc3c2ncn3C2CCCCO2)c1 (stereo not drawn) [6-(3-hydroxybenzylamino)-9-(tetrahydropyran-2-yl)purine] | 10^−4 mol · l^−1 | 105.1 | 10^−5 mol · l^−1 | 139 | – | – | – | 5 | 3 | 25 | 133.1 | 10^−4 mol · l^−1 | – | – | – | – | – | – |
| CC(CO)CCNc1ncnc2c1ncn2C1CCCCO1 (stereo not drawn) [6-(4-hydroxy-3-methylbutylamino)-9-(tetrahydropyran-2-yl)purine] | 10^−4 mol · l^−1 | 83 | 10^−5 mol · l^−1 | 112 | – | – | – | 5 | 2 | 25 | 95 | 10^−4 mol · l^−1 | – | – | – | – | – | – |
| Oc1ccc(CNc2ncnc3c2ncn3C2CCCO2)cc1 (stereo not drawn) [6-(4-hydroxybenzylamino)-9-(tetrahydrofuran-2-yl)-purine] | 10^−4 mol · l^−1 | 13 | 10^−5 mol · l^−1 | 27 | – | – | – | 5 | 5 | 16 | 3 | 10^−4 mol · l^−1 | – | > 167 | > 167 | > 167 | > 167 | – |
| C/C(=C\CNc1ncnc2nc[nH]c12)CO [6-((E)-4-hydroxy-3-methylbut-2-enylamino)purine, reference compound] | – | 116 | – | 86.9 | – | – | – | – | – | – | 28.3 | – | – | > 167 | > 167 | > 167 | > 167 | > 167 |
| CCOCCn1cnc2c(NCc3ccc(O)cc3)ncnc21 [Compound 133, 6-(4-hydroxybenzylamine)-9-(1-ethoxyeth-2-yl)purine] | – | – | – | – | > 167 | > 167 | > 167 | – | – | – | – | – | > 167 | – | – | – | – | – |
